Test results taken from patent publication US9023821B2, “Use of MicroRNA for treating diseases associated with a dysfunction of the cilia in multiciliated epithelial cells” (Centre National de la Recherche Scientifique, priority 2009, dated 2015).

Key:
[1] = tested on: basal cells and pyramidal cells of the airway epithelium; assay: miRNA expression in sorted basal cells versus pyramidal cells (ciliated + secretory), HTS and Agilent chips; set-up: species or system human; details: for Modulation of expression of the miRNAs in pyramidal cells (323(−)) relative to basal cells 323(+): HTS and Agilent chips; for Intensity of the level of expression in log2 in pyramidal cells (323(−)): pyramidal cells (ciliated + secretory)
Summary of the method: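 Sorted basal versus ciliated/mucus-secreting cells; markers CD151 and tissue factor; donors n=3; miRNA by Agilent chip or HTS.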

[2] = tested on: human airway epithelial cells (HAECs); assay: High-throughput sequencing (HTS) of miRNAs at four stages of differentiation of HAECs; details: for Modulation (ratio of the level of intensity of expression in log2 in two stages of differentiation) measured by high-throughput sequencing, D7 − D0 / Modulation (ratio of the level of intensity of expression in log2 in two stages of differentiation) measured by high-throughput sequencing, FC − D7 / Modulation (ratio of the level of intensity of expression in log2 in two stages of differentiation) measured by high-throughput sequencing, WD − D0 / Modulation (ratio of the level of intensity of expression in log2 in two stages of differentiation) measured by high-throughput sequencing, WD − FC / Level of intensity of expression in log2 measured by high-throughput sequencing, D0 / Level of intensity of expression in log2 measured by high-throughput sequencing, D7 / Level of intensity of expression in log2 measured by high-throughput sequencing, FC / Level of intensity of expression in log2 measured by high-throughput sequencing, WD: Table VI; for Level of intensity of expression in log2 At the differentiated stage (WD) measured in HTS: healthy human airway epithelial tissue; for Level of intensity of expression in log2 measured by high-throughput sequencing, D0: stage D0; for Level of intensity of expression in log2 measured by high-throughput sequencing, D7: stage D7; for Level of intensity of expression in log2 measured by high-throughput sequencing, FC: stage FC; for Level of intensity of expression in log2 At the differentiated stage (WD) measured in HTS / Level of intensity of expression in log2 measured by high-throughput sequencing, WD: stage WD; for Modulation (ratio of the level of intensity of expression in log2 in two stages of differentiation), D7 − D0 / Modulation (ratio of the level of intensity of expression in log2 in two stages of differentiation), FC − D7 / Modulation (ratio of the level of intensity of expression in log2 in two stages of differentiation), WD − FC / Abundance (%), D0 / Abundance (%), D7 / Abundance (%), FC / Abundance (%), WD: HTS; for Abundance (%), D0: ALI-D0; for Abundance (%), D7: ALI-D7; for Abundance (%), FC: ALI-FC; for Abundance (%), WD: ALI-WD
Summary of the method: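 Differentiation time course at air-liquid interface: 0, 7, ~14 (first cilia) and ~21 days (fully differentiated). Sequencing counts per strand were normalized to 10^6 sequences and analysed by linear model with empirical Bayesian moderation.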

[3] = tested on: human airway epithelial cells (HAECs); assay: Agilent miRNA chips, miRNA expression at four stages of differentiation of HAECs; details: for Modulation (ratio of the level of intensity of expression in log2 in two stages of differentiation) measured with the Agilent chips, D7 − D0 / Modulation (ratio of the level of intensity of expression in log2 in two stages of differentiation) measured with the Agilent chips, FC − D7 / Modulation (ratio of the level of intensity of expression in log2 in two stages of differentiation) measured with the Agilent chips, WD − D0 / Modulation (ratio of the level of intensity of expression in log2 in two stages of differentiation) measured with the Agilent chips, WD − FC / Level of intensity of expression in log2 measured with the Agilent chips, D0 / Level of intensity of expression in log2 measured with the Agilent chips, D7 / Level of intensity of expression in log2 measured with the Agilent chips, FC / Level of intensity of expression in log2 measured with the Agilent chips, WD: Table VI; for Modulation (ratio of the level of intensity of expression in log2 at two stages of differentiation), FC − D7 / Modulation (ratio of the level of intensity of expression in log2 at two stages of differentiation), WD − FC: Agilent miRNA chips, Table V; for Level of intensity of expression in log2 measured with the Agilent chips, D0: stage D0; for Level of intensity of expression in log2 measured with the Agilent chips, D7: stage D7; for Level of intensity of expression in log2 measured with the Agilent chips, FC: stage FC; for Level of intensity of expression in log2 measured with the Agilent chips, WD: stage WD
Summary of the method: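 RNA from the same patients used for small-RNA sequencing was labelled and hybridized to a Human miRNA Microarray v2 (866 human and 89 human viral miRNAs, covering miRBase v.12.0) with the kit's labelling and hybridization protocol, giving miRNA expression profiles to compare against the sequencing data.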

Substance	Modulation of expression of the miRNAs in pyramidal cells (323(−)) relative to basal cells 323(+) [1]	Intensity of the level of expression in log2 in basal cells (323(+)) [1]	Intensity of the level of expression in log2 in pyramidal cells (323(−)) [1]	Modulation (ratio of the level of intensity of expression in log2 in two stages of differentiation) measured by high-throughput sequencing, D7 − D0 [2]	Modulation (ratio of the level of intensity of expression in log2 in two stages of differentiation) measured by high-throughput sequencing, FC − D7 [2]	Modulation (ratio of the level of intensity of expression in log2 in two stages of differentiation) measured by high-throughput sequencing, WD − D0 [2]	Modulation (ratio of the level of intensity of expression in log2 in two stages of differentiation) measured by high-throughput sequencing, WD − FC [2]	Level of intensity of expression in log2 At the differentiated stage (WD) measured in HTS [2]	Level of intensity of expression in log2 measured by high-throughput sequencing, D0 [2]	Level of intensity of expression in log2 measured by high-throughput sequencing, D7 [2]	Level of intensity of expression in log2 measured by high-throughput sequencing, FC [2]	Level of intensity of expression in log2 measured by high-throughput sequencing, WD [2]	Modulation (ratio of the level of intensity of expression in log2 in two stages of differentiation) measured with the Agilent chips, D7 − D0 [3]	Modulation (ratio of the level of intensity of expression in log2 in two stages of differentiation) measured with the Agilent chips, FC − D7 [3]	Modulation (ratio of the level of intensity of expression in log2 in two stages of differentiation) measured with the Agilent chips, WD − D0 [3]	Modulation (ratio of the level of intensity of expression in log2 in two stages of differentiation) measured with the Agilent chips, WD − FC [3]	Level of intensity of expression in log2 measured with the Agilent chips, D0 [3]	Level of intensity of expression in log2 measured with the Agilent chips, D7 [3]	Level of intensity of expression in log2 measured with the Agilent chips, FC [3]	Level of intensity of expression in log2 measured with the Agilent chips, WD [3]	also measured
hsa-miR-27b: human miRNA, SEQ ID No. 30 (UUCACAGUGGCUAAGUUCUGC; expressed or natural sequence; listed as Homo sapiens)	−3.56	9.77 log2	6.21 log2	0.64 log2	−0.69 log2	−0.11 log2	−0.06 log2	14.81 log2	6.92 log2	7.57 log2	6.88 log2	6.81 log2	1.77 log2	−0.47 log2	1.36 log2	0.05 log2	9.26 log2	11.03 log2	10.57 log2	10.62 log2	Modulation (ratio of the level of intensity of expression in log2 at two stages of differentiation), FC − D7 [3]: −0.47 log2; Modulation (ratio of the level of intensity of expression in log2 at two stages of differentiation), WD − FC [3]: 0.05 log2
hsa-miR-29a: human miRNA, SEQ ID No. 31 (UAGCACCAUCUGAAAUCGGUUA; expressed or natural sequence; listed as Homo sapiens)	−2.95	11.09 log2	8.14 log2	−1.34 log2	−0.11 log2	−1.43 log2	0.02 log2	14.53 log2	16.24 log2	14.90 log2	14.79 log2	14.81 log2	0.17 log2	−0.71 log2	−0.38 log2	0.16 log2	11.23 log2	11.40 log2	10.69 log2	10.85 log2	Modulation (ratio of the level of intensity of expression in log2 in two stages of differentiation), D7 − D0 [2]: −1.34 log2; Modulation (ratio of the level of intensity of expression in log2 in two stages of differentiation), FC − D7 [2]: −0.11 log2; Modulation (ratio of the level of intensity of expression in log2 in two stages of differentiation), WD − FC [2]: 0.02 log2; Abundance (%), D0 [2]: 17.01%; Abundance (%), D7 [2]: 6.72%; Abundance (%), FC [2]: 6.02%; Abundance (%), WD [2]: 4.64%
hsa-miR-29c: human miRNA, SEQ ID No. 32 (UAGCACCAUUUGAAAUCGGUUA; expressed or natural sequence; listed as Homo sapiens)	−3.06	11.06 log2	8.00 log2	0.82 log2	0.02 log2	0.87 log2	0.03 log2	9.74 log2	13.66 log2	14.48 log2	14.50 log2	14.53 log2	1.61 log2	−0.28 log2	1.57 log2	0.24 log2	9.04 log2	10.66 log2	10.38 log2	10.62 log2	Modulation (ratio of the level of intensity of expression in log2 in two stages of differentiation), D7 − D0 [2]: 0.82 log2; Modulation (ratio of the level of intensity of expression in log2 in two stages of differentiation), FC − D7 [2]: 0.02 log2; Modulation (ratio of the level of intensity of expression in log2 in two stages of differentiation), WD − FC [2]: 0.03 log2; Abundance (%), D0 [2]: 2.84%; Abundance (%), D7 [2]: 5.03%; Abundance (%), FC [2]: 4.95%; Abundance (%), WD [2]: 3.82%; Modulation (ratio of the level of intensity of expression in log2 at two stages of differentiation), FC − D7 [3]: −0.28 log2; Modulation (ratio of the level of intensity of expression in log2 at two stages of differentiation), WD − FC [3]: 0.24 log2
